The results in this text go back to ChEMBL document CHEMBL1141742, “A Novel Insect Antifeedant Nonprotein Amino Acid from Calotropis gigantea” (1998).

SMILES strings stand for the structures. Active and inactive are the calls of the source. The rule behind the calls is not given here.

Test [1] concerns Schistocerca gregaria. The test can be described thus: Antifeedant activity against 5th instar nymphs of Schistocerca gregaria assessed as feeding reduction at 1 ng/cm'2 by filter paper based feeding assay. The format is functional, organism-based.
In test [2] the test system is Schistocerca gregaria. The test can be described thus: Antifeedant activity against 5th instar nymphs of Schistocerca gregaria assessed as feeding reduction at 6.6 ug/cm'2 by maize leave choice feeding assay. Format: functional. On the set-up: scale not given: the % may be the effect or the level left.
Test [3] concerns Schistocerca gregaria. Kind of test: Antifeedant activity against 5th instar nymphs of Schistocerca gregaria assessed as feeding reduction at 5 ug/cm'2 by maize leave choice feeding assay. The format is functional. More on the design: scale not given: the % may be the effect or the level left.
The test system of test [4] is Schistocerca gregaria. Kind of test: Antifeedant activity against 5th instar nymphs of Schistocerca gregaria assessed as feeding reduction at 3.2 ug/cm'2 by maize leave choice feeding assay. The format is functional. On the set-up: scale not given: the % may be the effect or the level left.
For test [5], the system named is Schistocerca gregaria. Kind of test: Antifeedant activity against 5th instar nymphs of Schistocerca gregaria assessed as feeding reduction at 1.6 ug/cm'2 by maize leave choice feeding assay. Format: functional. On the set-up: scale not given: the % may be the effect or the level left.

Regarding `C/C=C(\C)C(=O)O[C@H]1C[C@@H](OC(C)=O)[C@@]2(C(=O)OC)CO[C@H]3[C@@H](O)[C@@](C)([C@]45O[C@@]4(C)[C@@H]4C[C@H]5O[C@@H]5OC=C[C@@]54O)[C@H]4[C@]1(CO[C@]4(O)C(=O)OC)[C@@H]32`, the result in test [1] was Active.
For the molecule `CCOC(=O)Nc1ccc([C@H](NC(C)=O)C(=O)O)cc1` [GIGANTICINE], the Activity in test [2] was 90%; in test [3], 80%; in test [4], 68%; in test [5], 55%.
